Source: PMC10534582, “A Pharmacokinetic Study of Sixteen Major Bioactive Components of Jinshui-Huanxian Granules in Pulmonary Fibrosis Model and Control Rats Using Orbitrap Fusion Mass Spectrometry” (Molecules, 2023)
Like-named read-outs stand apart in the source and are kept apart here.

Assays:
[1] = Pharmacokinetics of JHG components in pulmonary fibrosis (PF) model rats after intragastric administration of JHGs (plasma, Orbitrap Fusion MS); type: in vivo, Sprague Dawley (SD) rats; conditions: for pharmacokinetic process (versus dosage): low, medium, high doses of JHGs; for Cmax, PF model group compared with the control group: medium dose selected for comparison; for AUCs, PF model group compared with the control group: p < 0.05
Method: (§1) Healthy male Sprague Dawley (SD) rats of SPF grade (240 ± 20 g) were purchased from Sipeifu (Beijing, China) Biotechnology Co., Ltd. (Beijing, China), Certificate of Conformity No.: SCYK (Beijing, China) 2019-0015, Animal Quality Certificate No.: 110324220102348616. They were housed in the Animal Center of Henan University of Traditional Chinese Medicine, which passed the ethical audit, ethics number: DWLL202208003, breeding Co. 24 °C, relative humidity 50 ± 2%. The animals fasted for 12 h before the experiment and drank water freely. All feeding and experimental studies on experimental animals were in accordance with the regulations on the Management of Experimental Animals in Henan Province.
The PF model in rats was replicated by reference to the conclusion tracheal intubation method in the literature. After the rats were anesthetized, bleomycin (BLM) (5 mg/kg) was used as an induction agent and followed the tracheal intubation method. BLM solution was aspirated with a 1 mL syringe and injected into the indwelling syringe. A total of 0.3 mL of air was rapidly pushed into the syringe, the rats were immediately stroked upright so that the BLM solution was evenly distributed in both lungs. BLM was given on day 0 for modeling, then gavage was taken after day 28, with fasting without water for 12 h before sampling. The histopathological examination was performed to verify the construction of the PF model. The rats were anesthetized by the abdominal cavity, then the lung tissues were violently shocked by opening the chest, and the right lower lobe of the lung was taken and fixed in 4% formaldehyde solution, then dehydrated by sucrose gradient, paraffin-embedded, and sectioned. H&E and Masson staining were performed to observe the degree of alveolitis of lung tissue and the degree of pulmonary fibrosis, respectively. The inflammation and fibrosis of lung tissues was observed under the light microscope.
(§2) Twenty-four healthy male SD rats or PF model rats, weighing 240 ± 20 g, fasted for 12 h before the experiment and drank water freely. Both kinds of rats were randomly divided into four groups. Blank group: equal dose of water by intragastric, low dose; administration group: rats were given the equivalent human dose of JHGs by intragastric, i.e., 10.8 g of raw drug/kg/d (5.70 g/kg/d); medium-dose administration group: 2 times the human equivalent dose of JHGs by intragastric, i.e., 21.6 g of raw drug/kg/d (11.41 g/kg/d); high-dose administration group: 4 times the human equivalent dose of JHG, i.e., 43.2 g of raw drug/kg/d (22.81 g/kg/d). Blood was collected from the tail vein before and 0.083, 0.25, 0.5, 0.75, 1, 1.5, 2, 3, 4, 6, 8, 12, 18, and 24 h after dosing, respectively. A total of 0.5 mL was placed in a heparin sodium centrifuge tube. Whole blood was left for 30 min and then centrifuged in a low-temperature freezing centrifuge (4 °C, 3000 r/min) for 15 min. The upper layer of plasma was collected and stored in a refrigerator at −80 °C.
(§3) We added 50 μL of internal standard solution and 800 μL of methanol, shook for 15 min, then centrifuged at 12,000 r/min for 10 min, took the supernatant, dried in a centrifuge concentrator, added 50 μL of the initial mobile phase to the residue, dissolved, centrifuged, then separated the upper layer of the solution used as the test solution. A total of 5 μL test solution was taken into the sample for analysis. For each compound with a certain dosage, the same procedure is repeated six times in parallel. The concentration in plasma was calculated by the internal standard method.
Accucore C18 (100 mm × 2.1 mm, 2.6 μm) column at 25 °C, the mobile phase was methanol (A)-0.1% formic acid aqueous solution (B). The gradient elution program was 0–4 min (65% B-40% B), 4–5 min (40% B-40% B), 5–6 min (40% B-28% B), and 6–7 min (28% B-19% B), 7–7.5 min (19% B-10% B), 7.5–11 min (10% B-0% B), the flow rate was 0.2 mL/min, and the injection volume was 5 μL. […]

[2] = Pharmacokinetics of JHG components in control rats after intragastric administration of JHGs (plasma, Orbitrap Fusion MS); type: in vivo, Sprague Dawley (SD) rats; conditions: for pharmacokinetic process (Cmax and AUCs versus dosage): low, medium, high doses of JHGs; for Tmax / AUC(0-inf) / AUC(0-t) / half-life / MRT last / MRT inf / Cmax: male, rat, plasma, po; for MRT last: read-out: MRT(0-t); for MRT inf: read-out: MRT(0-∞); for Cmax: intragastric JHGs
Method: as §1, §2, §3
Accucore C18 (100 mm × 2.1 mm, 2.6 μm) column at 25 °C, the mobile phase was methanol (A)-0.1% formic acid aqueous solution (B). The gradient elution program was 0–4 min (65% B-40% B), 4–5 min (40% B-40% B), 5–6 min (40% B-28% B), and 6–7 min (28% B-19% B), 7–7.5 min (19% B-10% B), 7.5–11 min (10% B-0% B), the flow rate was 0.2 mL/min, and the injection volume was 5 μL.
The ion source was an electrospray ionization source (ESI). Nitrogen acted as a carrier gas. The sheath gas pressure was 35 Arb. The auxiliary gas pressure was 7 Arb. The spray voltage was 3.50 kv(+), 2.50 kv(-). The ion transport tube temperature was regulated at 300 °C. Gasification temperature was 275 °C. The resolution was 50,000. The scanning mode was set as SIM mode. The optimized parameters obtained are in Table 5.
Under the established Orbitrap Fusion MS method, the pharmacokinetics of JHG in rats were studied to investigate the dynamic changes of the active components in rats. The pharmacokinetic parameters of each component in each dosing group were calculated by […] model analysis using Kinetica 5.1 (Innaphase, Waltham, MA, USA) pharmacokinetic analysis software. The pharmacotemporal curves were plotted by the plotting software. SPSS 19.0 (IBM, Armonk, NY, USA) was used to analyze all the parameters. Independent sample tests were performed after natural logarithmic transformation for AUC0–t, Cmax. The nonparametric Mann–Whitney test was applied for Tmax, t½, and MRT0–t. p < 0.05 was considered statistically significant.

[3] = because of poor gastrointestinal absorption; cited from earlier work
[4] = Sprague Dawley, 5.7 g/kg/day, JHGs low dose 5.70 g/kg/d
[5] = Sprague Dawley, 11.41 g/kg/day, JHGs medium dose 11.41 g/kg/d
[6] = Sprague Dawley, 22.81 g/kg/day, JHGs high dose 22.81 g/kg/d

With `CC(C)=CCC[C@](C)(O[C@@H]1O[C@H](CO[C@@H]2O[C@@H](CO)[C@H](O)[C@H]2O)[C@@H](O)[C@H](O)[C@H]1O)[C@H]1CC[C@]2(C)[C@@H]1[C@H](O)C[C@@H]1[C@@]3(C)CC[C@H](O[C@@H]4O[C@H](CO)[C@@H](O)[C@H](O)[C@H]4O[C@@H]4O[C@H](CO)[C@@H](O)[C@H](O)[C@H]4O)C(C)(C)[C@@H]3CC[C@]12C` [Ginsenoside Rc] the “shape of plasma concentration–time curve” value ([1]; PF model group, medium- and high-dose groups, compared to control group) was “double peaks phenomenon”, the “pharmacokinetic process (Cmax and AUCs versus dosage)” value [2] was “linear pharmacokinetic process” and the Tmax ([2]; Sprague-Dawley, after administration of JHGs, read-out: Tmax of all dosages) was no more than 2 h.

For `CC(C)=CCC[C@](C)(O[C@@H]1O[C@H](CO[C@@H]2OC[C@H](O)[C@H](O)[C@H]2O)[C@@H](O)[C@H](O)[C@H]1O)[C@H]1CC[C@]2(C)[C@@H]1[C@H](O)C[C@@H]1[C@@]3(C)CC[C@H](O[C@@H]4O[C@H](CO)[C@@H](O)[C@H](O)[C@H]4O[C@@H]4O[C@H](CO)[C@@H](O)[C@H](O)[C@H]4O)C(C)(C)[C@@H]3CC[C@]12C` [Ginsenoside Rb2], the “pharmacokinetic process (versus dosage)” value ([1]; PF model rats) was “linear pharmacokinetic process”, the “Tmax, PF model group compared with the control group” value ([1]; PF model vs control rats) was “slightly increased” and the “reduction of Cmax in PF model group relative to control” value ([1]; PF model vs control rats) was “about 1/3”. For the same compound, the “Cmax, PF model group compared with the control group” value ([1]; PF model vs control rats) was “significantly decreased”, the “AUCs, PF model group compared with the control group” value ([1]; PF model vs control rats) was “significantly decreased” and the Tmax ([1]; male, Sprague-Dawley, rat, plasma, po, PF model rats, after administration of JHGs, read-out: Tmax of all dosages) was no more than 2 h. The “pharmacokinetic process (Cmax and AUCs versus dosage)” value [2] was “linear pharmacokinetic process” and the “bioavailability, oral administration” value [3] was “low”.

For `CC(C)=CCC[C@](C)(O[C@@H]1O[C@H](CO[C@@H]2O[C@H](CO)[C@@H](O)[C@H](O)[C@H]2O)[C@@H](O)[C@H](O)[C@H]1O)[C@H]1CC[C@]2(C)[C@@H]1[C@H](O)C[C@@H]1[C@@]3(C)CC[C@H](O[C@@H]4O[C@H](CO)[C@@H](O)[C@H](O)[C@H]4O[C@@H]4O[C@H](CO)[C@@H](O)[C@H](O)[C@H]4O)C(C)(C)[C@@H]3CC[C@]12C` [Ginsenoside Rb1], the “pharmacokinetic process (versus dosage)” value ([1]; PF model rats) was “linear pharmacokinetic process”, the “Cmax, PF model group compared with the control group” value ([1]; PF model vs control rats) was “significantly decreased” and the “AUCs, PF model group compared with the control group” value ([1]; PF model vs control rats) was “significantly decreased”. The “pharmacokinetic process (Cmax and AUCs versus dosage)” value [2] was “linear pharmacokinetic process”.

For `CC1CCC2N(C1)CC1C3CC4C(CC(O)C5CC(O)CCC54C)C3CCC1C2(C)O` (centres unmarked) [Peimine], the “MRT(0–t), PF model group compared with the control group” value ([1]; PF model vs control rats) was “decreased”, the Clearances ([2]; JHGs high dose 22.81 g/kg/d) was 88.7 ± 12.2 mL/min/kg and the Vss ([2]; JHGs high dose 22.81 g/kg/d) was 60.06 ± 7.12 L. The Clearances ([2]; JHGs low dose 5.70 g/kg/d) was 31 ± 7.83 mL/min/kg, the Vss ([2]; JHGs low dose 5.70 g/kg/d) was 131.39 ± 53.45 L and the Clearances ([2]; JHGs medium dose 11.41 g/kg/d) was 75.5 ± 9.5 mL/min/kg. The Vss ([2]; JHGs medium dose 11.41 g/kg/d) was 61.2 ± 9.95 L, the “pharmacokinetic process (Cmax and AUCs versus dosage)” value [2] was “linear pharmacokinetic process” and the AUC(0-inf) [2, 4] was 24.7 ± 5.52 ng·h/mL. The AUC(0-t) [2, 4] was 7.38 ± 2.13 ng·h/mL, the half-life [2, 4] was 52.1 ± 30.7 h and the MRT last [2, 4] was 11.1 ± 0.12 h. It also gave an MRT inf [2, 4] of 75.3 ± 41.8 h, a Tmax ([2]; Sprague Dawley, 5.7 g/kg/day, JHGs low dose 5.70 g/kg/d, read-out: Tmax) of 4 h and a Cmax ([2]; Sprague Dawley, 5.7 g/kg/day, low dose 5.70 g/kg/d, n=6 (1st of 3 stacked values)) of 0.57 ± 0.22 ng/mL. The AUC(0-inf) [2, 5] was 17.6 ± 2.24 ng·h/mL, the AUC(0-t) [2, 5] was 14.6 ± 1.9 ng·h/mL and the half-life [2, 5] was 8.02 ± 0.39 h. For the same compound, the MRT last [2, 5] was 8.8 ± 0.32 h, the MRT inf [2, 5] was 13.5 ± 0.58 h and the Tmax ([2]; Sprague Dawley, 11.41 g/kg/day, JHGs medium dose 11.41 g/kg/d, read-out: Tmax) was 3.33 ± 0.58 h. It also gave a Cmax ([2]; Sprague Dawley, 11.41 g/kg/day, medium dose 11.41 g/kg/d, n=6 (2nd of 3 stacked values)) of 1.49 ± 0.26 ng/mL, an AUC(0-inf) [2, 6] of 29.9 ± 4.92 ng·h/mL and an AUC(0-t) [2, 6] of 26.6 ± 4.11 ng·h/mL. The half-life [2, 6] was 7.23 ± 0.62 h, the MRT last [2, 6] was 8.43 ± 0.11 h and the MRT inf [2, 6] was 11.3 ± 0.63 h. It also gave a Tmax ([2]; Sprague Dawley, 22.81 g/kg/day, JHGs high dose 22.81 g/kg/d, read-out: Tmax) of 2.67 ± 0.58 h and a Cmax ([2]; Sprague Dawley, 22.81 g/kg/day, high dose 22.81 g/kg/d, n=6 (3rd of 3 stacked values)) of 2.53 ± 0.56 ng/mL.
